Results taken from patent publication US11110138B2 (priority 2012, dated 2021).

Test: in vitro
Settings: African green monkey

Work on CS(=O)(=O)OCCCCOS(C)(=O)=O [busulfan] yielded a viability of ~82%.
